Laboratory results as given in ChEMBL document CHEMBL6182889, “Discovery of the first-in-class DOT1L PROTAC degrader” (Eur J Med Chem, 2025).
The source made the active and inactive calls. The calls are words filed in the database; no cut-off is given here.

Tests used:
[1] = target: T1, von Hippel-Lindau disease tumor suppressor/Histone-lysine N-methyltransferase, H3 lysine-79 specific (Homo sapiens, UniProt Q8TEK3+P40337); test: PROTAC activity at VHL/DOT1L in mixed-lineage leukemia rearranged (MLL-r) human THP-1 cells assessed as induction of DOTIL degradation by measuring fold change in DOT1L protein level at 3 uM incubated for 4 hrs by western blot analysis relative to control; assay type: cell-based
[2] = target: T1, von Hippel-Lindau disease tumor suppressor/Histone-lysine N-methyltransferase, H3 lysine-79 specific; test: PROTAC activity at VHL/DOT1L in mixed-lineage leukemia rearranged (MLL-r) human MV4-11 cells assessed as induction of DOTIL degradation by measuring fold change in H3K79Me2 level at 3 uM incubated for 1 hr by western blot analysis relative to control; assay type: cell-based
[3] = target: T1, von Hippel-Lindau disease tumor suppressor/Histone-lysine N-methyltransferase, H3 lysine-79 specific; test: PROTAC activity at VHL/DOT1L in mixed-lineage leukemia rearranged (MLL-r) human MV4-11 cells assessed as induction of DOTIL degradation by measuring fold change in H3K79Me2 level at 3 uM incubated for 2 hrs by western blot analysis relative to control; assay type: cell-based
[4] = target: T1, von Hippel-Lindau disease tumor suppressor/Histone-lysine N-methyltransferase, H3 lysine-79 specific; test: PROTAC activity against VHL/DOT1L in mixed-lineage leukemia rearranged (MLL-r) human THP-1 cells assessed as induction of DOT1L degradation at 3 uM preincubated with NAE inhibitor, MLN4924 for 1 hr followed by incubation with compound for 8 hrs by western blot analysis; assay type: cell-based
[5] = target: Histone-lysine N-methyltransferase, H3 lysine-79 specific (Homo sapiens) (UniProt Q8TEK3); test: Inhibition of human DOT1L using oligonucleosomes and SAM as substrate at 4.6 nM by radiometric Hotspot assay
[6] = target: Histone-lysine N-methyltransferase 2A (Homo sapiens) (UniProt Q03164); test: Inhibition of human MLL1 using nucleosomes and SAM as substrate at 10 uM by radiometric Hotspot assay
[7] = target: PRMT5/MEP50 complex (Homo sapiens) (UniProt O14744+Q9BQA1); test: Inhibition of human PRMT5/MEP50 complex using histone H2A and SAM as substrate at 10 uM by radiometric Hotspot assay; assay type: protein-complex assay
MV4-11 = test: Antiproliferative activity against mixed-lineage leukemia rearranged (MLL-r) human MV4-11 cells assessed as inhibition of cell growth incubated for 7 days by CCK-8 assay; assay type: functional; details: MV4-11, 168 h, time 7 day
PNT2 = test: Cytotoxicity against human PNT2 cells assessed as inhibition of cell growth incubated for 7 days by CCK-8 assay; assay type: toxicity, cell-based; details: pnt2, 168 h, time 7 day

T1 sequence (P40337 whole entry, looked up): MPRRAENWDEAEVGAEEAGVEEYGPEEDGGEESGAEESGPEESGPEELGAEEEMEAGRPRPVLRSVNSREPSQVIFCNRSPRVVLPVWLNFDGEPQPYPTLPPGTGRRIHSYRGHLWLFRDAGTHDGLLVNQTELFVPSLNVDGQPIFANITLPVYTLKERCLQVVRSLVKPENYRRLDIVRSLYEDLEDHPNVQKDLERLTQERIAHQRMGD
T1 sequence (Q8TEK3 whole entry, looked up): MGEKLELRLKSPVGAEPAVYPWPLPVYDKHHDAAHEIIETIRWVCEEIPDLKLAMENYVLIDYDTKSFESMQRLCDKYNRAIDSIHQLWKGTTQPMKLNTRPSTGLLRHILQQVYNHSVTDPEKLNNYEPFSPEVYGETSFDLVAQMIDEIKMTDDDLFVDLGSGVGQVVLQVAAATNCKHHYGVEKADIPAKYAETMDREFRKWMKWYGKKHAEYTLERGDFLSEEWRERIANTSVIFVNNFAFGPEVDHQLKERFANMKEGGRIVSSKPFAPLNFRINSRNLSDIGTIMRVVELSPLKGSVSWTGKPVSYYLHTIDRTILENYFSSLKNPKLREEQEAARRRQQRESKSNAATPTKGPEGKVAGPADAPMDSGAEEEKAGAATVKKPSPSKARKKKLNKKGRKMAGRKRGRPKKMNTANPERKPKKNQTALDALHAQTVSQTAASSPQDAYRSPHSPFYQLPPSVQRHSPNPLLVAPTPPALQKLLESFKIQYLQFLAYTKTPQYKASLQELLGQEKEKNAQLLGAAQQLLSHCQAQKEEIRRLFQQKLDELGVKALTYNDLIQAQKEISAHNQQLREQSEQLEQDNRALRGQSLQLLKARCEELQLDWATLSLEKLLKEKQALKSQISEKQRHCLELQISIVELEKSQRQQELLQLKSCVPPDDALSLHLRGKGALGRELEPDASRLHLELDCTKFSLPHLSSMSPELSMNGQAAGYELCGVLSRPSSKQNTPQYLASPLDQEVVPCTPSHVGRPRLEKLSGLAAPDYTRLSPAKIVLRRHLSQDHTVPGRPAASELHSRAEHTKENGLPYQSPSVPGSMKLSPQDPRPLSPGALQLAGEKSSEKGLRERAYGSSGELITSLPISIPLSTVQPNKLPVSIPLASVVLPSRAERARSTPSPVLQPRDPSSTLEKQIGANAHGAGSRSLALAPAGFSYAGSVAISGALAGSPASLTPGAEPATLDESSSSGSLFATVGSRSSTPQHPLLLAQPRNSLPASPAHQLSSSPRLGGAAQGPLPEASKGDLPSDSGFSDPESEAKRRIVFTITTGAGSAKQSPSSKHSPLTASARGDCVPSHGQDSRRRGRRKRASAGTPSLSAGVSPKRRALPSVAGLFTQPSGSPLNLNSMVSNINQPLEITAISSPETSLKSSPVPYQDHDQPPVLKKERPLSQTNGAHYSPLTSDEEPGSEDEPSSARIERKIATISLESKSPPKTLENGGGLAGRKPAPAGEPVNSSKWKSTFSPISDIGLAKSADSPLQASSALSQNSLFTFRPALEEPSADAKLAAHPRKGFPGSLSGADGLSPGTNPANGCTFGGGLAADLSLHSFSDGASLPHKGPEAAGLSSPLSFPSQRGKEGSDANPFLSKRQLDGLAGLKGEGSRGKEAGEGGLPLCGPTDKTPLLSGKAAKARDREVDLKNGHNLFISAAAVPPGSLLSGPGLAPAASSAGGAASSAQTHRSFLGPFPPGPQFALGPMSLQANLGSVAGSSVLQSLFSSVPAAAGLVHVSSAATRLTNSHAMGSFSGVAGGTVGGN
Chain of Histone-lysine N-methyltransferase, H3 lysine-79 specific (Homo sapiens) (Q8TEK3 whole entry, looked up): as above

fold change (FC) [1]: 0.4
fold change (FC) [2]: 0.34
fold change (FC) [3]: 0.41
Activity [4]: inactive
inhibition [5]: > 95%
inhibition [6]: inactive
inhibition [7]: inactive
GI50 (MV4-11): 212 nM
SMILES: Cc1ncsc1-c1ccc([C@H](CC(=O)NCCCCCCNC(=O)COc2nc(N)nc(Nc3cc(S(N)(=O)=O)ccc3N[C@@H](c3cccc4c3OC(F)(F)O4)c3ncccc3Cl)n2)NC(=O)[C@@H]2C[C@@H](O)CN2C(=O)[C@@H](NC(=O)C2(F)CC2)C(C)(C)C)cc1
Activity (PNT2): Non-toxic
